Source: patent publication US10799474B2, “Method of treating leukemia utilizing somatic cell reprogramming” (priority 2016, dated 2020)

Test system: normal hematopoietic stem cells/progenitor cells
Conditions: mouse, in vivo
Procedure: 7. Reprogramming factors have less effect on normal hematopoietic stem cells/progenitor cells: bone marrow cells and leukemic cells of OSKM mice were co-transplanted into lethally irradiated mice. After leukemia developed in the mice, Dox was added into the drinking water of the mice in experimental group for 7 days. […] It can be seen from FIG. 5A that the ratios of normal hematopoietic stem cells and progenitor cells in the mouse bone marrows were not affected after Dox treatment. […] It can be seen from FIG. 5B that the apoptosis of normal hematopoietic stem cells and progenitor cells was not affected after Dox treatment. […] It can be seen from FIGS. 5A, 5B, and 5C that the number and apoptosis of normal hematopoietic stem cells/progenitor cells were not affected and the mice in the experimental group were recovered from leukemia.

C[C@H]1c2cccc(O)c2C(=O)C2=C(O)[C@]3(O)C(=O)C(C(N)=O)=C(O)[C@@H](N(C)C)[C@@H]3[C@@H](O)[C@@H]21 [Dox, doxycycline]
apoptosis of normal hematopoietic stem cells and progenitor cells in the bone marrow: not affected | ratios of normal hematopoietic stem cells and progenitor cells in the bone marrow: not affected
